Measured values taken from US8084623B2, “Pyrrolidinyl and piperidinyl ketone derivatives and uses thereof” (Roche Palo Alto LLC, priority 2006, dated 2011).

| Compound | melting point [°C] |
| --- | --- |
| CCCC1(C(=O)c2cc(F)c(N)c(Cl)c2)CCNC1 (centres unmarked) | 65 to 67 |
| O=C(c1ccc2[nH]ncc2c1)C1(CC2CC2)CCCN1 (centres unmarked) | 291 to 292 |
| O=C(c1ccc2[nH]ncc2c1)C1(CC2CCCC2)CCCN1 (centres unmarked) | > 300 |
| CC(C)CC1(C(=O)c2cc(F)c(Cl)c(Cl)c2)CCNCC1 | 166 to 167 |
| CCCC1(C(=O)c2ccc(O)c(Cl)c2)CCCNC1 (centres unmarked) | 265.6 to 266.9 |
| CCCC1(C(=O)c2ccc(Cl)c(Cl)c2)CCN1 (centres unmarked) | 252.6 to 254 |
| CCCC1(C(=O)c2ccc(Cl)c(Cl)c2)CNC1 | 59 to 60 |
| COCC1(C(=O)c2ccc3[nH]ccc3c2)CCNC1 (centres unmarked) | 59.1 to 61 |
